Laboratory results reported in US4889871A, “Alkoxy-substituted dihydrobenzopyran-2-carboxylate derivatives” (G. D. Searle & Co., priority 1988, dated 1989).
pIC50: −log10 of the molar value.

Tested on: human neutrophils
Experiment: Human neutrophil degranulation assay (LTB4-induced, myeloperoxidase release)
Type: cell-based
Settings: Table 1, LTB4 (5×10^-8 M)
Method: Neutrophils were purified from venous blood of normal human donors using standard techniques of dextran sedimentation, centrifugation on Ficoll-paque® (Pharmacia) or Histopaque® sterile solution (Sigma) and hypotonic lysis of erythrocytes (Boyum, A., Isolation of Leukocytes From Human Blood: Further Observations. Scand. J. Lab. Clin. Invest., 21 (Suppl. 97): 31, 1968). The purity of isolated neutrophils was >95%.
Neutrophil degranulation was determined by measuring the release of myeloperoxidase activity into the incubation medium. Neutrophils (3×10^6) in 1 ml HBSS solution were preincubated with cytochalasin B (5 μg) at 37° C. for 5 minutes, followed by preincubation with test compounds for 7 minutes. Neutrophils were then incubated for 2 to 20 minutes with either LTB4 (5×10^-8 M) or the chemotactic peptide f-met-leu-phe (5×10^-6 M) to induce degranulation. Following incubation, samples were centrifuged and myeloperoxidase was extracted from the cell pellets by sonication in phosphate buffer containing 0.4% Triton X-100. Triton X-100 was also added to the supernatants to a concentration of 0.4%. The supernatants and the pellet - extracts were then assayed spectrophotometrically for myeloperoxidase activity by determining the rate of decomposition of H2 O2 with o-dianisidine as hydrogen donor as described by Renlund, et al. (Renlund, D. G., MacFarlane, J. L., Christensen, R. D., Lynch, R. E., and Rothstein, G., A Quantitative And Sensitive Method For Measurement Of Myeloperoxidase, Clinical Research 28:75A, 1980). Myeloperoxidase activity released into the supernatant was expressed as the percent of the average total activity (pellet plus supernatant).

CCCc1c(OCCCOc2ccc(C(C)=O)c(OC)c2CCC)ccc2c1OC(C(=O)O)CC2 (stereo not shown) [Example 1, 7-[3-(4-acetyl-3-methoxy-2-propylphenoxy)propoxy]-3,4-dihydro-8-propyl-2H-1-benzopyran-2-carboxylic acid]
pIC50: 5.82
